Patent US20180113115A1, “SCREENING ASSAYS BASED ON MAG AND/OR ABHD6 FOR SELECTING INSULIN SECRETION PROMOTING AGENT” (VAL-CHUM, LIMITED PARTNERSHIP, priority 2010, published 2018)
Entries after “also recorded” stand apart in the source; their conditions may differ.

Legend:
[1] = tested on: INS 832/13 cells; experiment: Effect of lipase inhibitors on [U-14C]-glucose incorporation into lipids; assay type: cell-based; conditions: for glucose incorporation into 1-monoacylglycerol (1-MAG) / glucose incorporation into 2-monoacylglycerol (2-MAG) / glucose incorporation into diacylglycerol (DAG) / glucose incorporation into triglycerides (TG): 10 μM WWL70, 1 μM JZL184
Method: (§1) INS 832/13 cells (Hohmeir et al.) were cultured at 37° C. in a humidified atmosphere containing 5% CO2 in RPMI 1640 with sodium bicarbonate, supplemented with 10% (v/v) fetal calf serum (Wisent), 10 mM HEPES, pH 7.4, 2 mM L-glutamine, 1 mM sodium pyruvate and 50 μM β-mercaptoethanol (complete RPMI). Cells were grown to 80% confluence. Media were changed to RPMI 1640 containing 3 mM glucose supplemented as the complete RPMI 24 h prior to the experiments. Insulin secretion incubations were conducted in Krebs-Ringer bicarbonate buffer containing 10 mM HEPES, pH 7.4 (KRBH).
INS 832/13 cells were incubated overnight at 11 mM [U-^14C]-glucose in RPMI medium in a CO2-incubator in order to pre-label all the lipids in the cells. Then the cells were washed in KRBH (1 mM [U-^14C]-glucose) and pre-incubated for 45 min in KRBH at 1 mM [U-^14C]-glucose to bring metabolism to basal level. After this, cells were further incubated for 2 h in KRBH at 1 and 10 mM [U-^14C]-glucose and the indicated inhibitors. […] Then the cells were washed rapidly and flash-frozen in liquid nitrogen and extracted for lipids. Lipids were separated by TLC and the associated radioactivity was quantified. Neutral lipids were separated on boric acid/silica gel-TLC, with two solvent systems, first petroleum ether: diethyl ether: acetic acid (70:30:1), followed by second solvent system up to half of the plates, chloroform: acetone: acetic acid (60:40:1). Phospholipids were separated with a solvent system, chloroform: methanol: water (65:25:4).

[2] = tested on: MAG lipase (MAGL); conditions: cited from earlier work
[3] = tested on: INS 832/13 cells; experiment: Insulin secretion measurement in INS 832/13 cells (static incubation); assay type: cell-based; conditions: for glucose-stimulated insulin secretion (GSIS): increasing glucose (5 and 10 mM), 10 μM WWL70, 50 μM orlistat, 1 μM JZL184; for KCl-stimulated insulin secretion: 35 mM KCl; for KCl-stimulated insulin secretion / insulin secretion stimulated by leucine+glutamine: 1 mM glucose, 10 μM WWL70 or 10 μM AMG9810; for insulin secretion stimulated by leucine+glutamine: Gln+Leu 5 mM each
Method: as §1
INS 832/13 cells were washed in KRBH containing 1 mM glucose and 0.5% defatted BSA (KRBH 1G/0.5% BSA) and pre-incubated for 45 min in KRBH 1G/0.5% BSA in presence of pharmacological agents (at indicated concentrations) or vehicle (DMSO). […] When examining the effect of 2-AG, it was added to cells at 0 to 1 μM concentration at 2 mM and 10 mM glucose. Insulin secretion from INS 832/13 cells was measured from either 45-min or 2-h static incubations in KRBH containing various glucose concentrations, 0.5% defatted BSA and pharmacological agents or vehicle, with or without 35 mM KCl or 0.3 mM palmitate, as specified.

[4] = tested on: TRPV1-R; conditions: in vivo; cited from earlier work
[5] = tested on: INS832/13 cells; experiment: RNAi-knockdown of ABHD6, insulin secretion; assay type: cell-based; conditions: siRNA transfection; for glucose-stimulated insulin secretion: 10 mM glucose
Method: INS 832/13 cells were plated at a density of 150 000 cells/well in a 12-well plate, in 1 ml complete RPMI medium, one day prior to RNAi transfection. On the next day, RNAi duplexes and lipofectamine-RNAimax™ were prepared separately. Then 24 pmol of each RNAi duplex was diluted in 100 μl Opti-MEM™ without serum and mixed gently. And at the same time, 2 μl of lipofectamine-RNAimax was diluted in 100 μl Opti-MEM without serum and mixed gently. Then the diluted RNAi duplex and RNAi-max reagents were mixed gently (200 μl volume) and incubated at room temperature for 20 min. This 200 μl mixture (which gives a final concentration of […] of RNAi), prepared separately for each well, was then added to the corresponding well with approximately 30% confluent INS cells. Following RNAi transfection, cells were incubated for 16 to 72 h. in a CO2 incubator at 37° C. Then the cells were starved by incubation in RPMI-1640 with 10% FBS and 1 mM glucose for 2 h. followed by washing one time with KRBH (containing 1 mM glucose and 0.5% BSA) and pre-incubation with the same KRBH for 45 min. Finally for following insulin secretion, cells were incubated in the KRBH buffer with 1 mM or 10 mM glucose for 2 h. The media and the cells were collected for insulin and protein assay as described above. The ABHD6-directed siRNAs and the control siRNAs were obtained from Ambion (Catalog #4390771; […]tt (ABHD6-6 sense or SEQ ID NO: 9), […]gt (ABHD6-6 anti-sense or SEQ ID NO: 10), […]tt (ABHD6-5 sense or SEQ ID NO: 11), […]at (ABHD6-5 anti-sense or SEQ ID NO: 12)). ABHD6-6 sense and antisense oligos are used in a similar fashion. Control siRNAs, which are non-targeting siRNAs with limited sequence similarity to known genes were obtained from Ambion (Catalog #AM4613 and AM4642) and were used to transfect the cells as described above. Additionally, non-treated cells and pBS (plasmid vector Bluescript) transfected cells were used as controls as well. Results of insulin secretion and ABHD6 expression in ABHD6-siRNA transfected cells were compared with different controls.

[6] = tested on: rat intact islets; experiment: GSIS in isolated intact rat islets; assay type: cell-based
Description: (§2) All procedures were approved by the Institutional Committee for the Protection of Animals at the Centre Hospitalier de l'Université de Montreal Research Center. Wistar rats or […] mice or CD1 mice (all male) from Charles River (St-Constant, QC, Canada) were anaesthetized with Somnotol® (MTC Pharmaceuticals, Canada) and sacrificed by exsanguination. Pancreatic islets were isolated by collagenase (type XI from Sigma) digestion of total pancreas (Gotoh et al.), followed by separation (centrifugation at 1040×g) on a Histopaque™ 1119, 1077 (Sigma) gradient. Isolated islets were handpicked and cultured overnight in a petri dish at 37° C. in a humidified atmosphere containing 5% CO2 in RPMI 1640 with sodium bicarbonate, supplemented with 10% fetal calf serum, 10 mM HEPES pH 7.4, 2 mM L-glutamine, 1 mM sodium pyruvate, 100 U/mL penicillin and 100 μg/mL streptomycin.
(§3) For insulin secretion from rat, mouse or human islets, batches of 10 islets were washed in KRBH containing 2.8 mM glucose and 0.5% defatted BSA, and pre-incubated for 45 min in KRBH containing 2.8 mM glucose, 0.5% defatted BSA and different pharmacological agents (at indicated concentrations) or DMSO. […] Total insulin contents and media insulin concentrations were determined by radioimmunoassay using human insulin standards (Linco Research, Mo.).

[7] = tested on: isolated C57Bl6 mouse islets; experiment: GSIS in isolated C57Bl6 mouse islets; assay type: cell-based; conditions: for GSIS: 20 μM WWL70 or 20 μM AMG9810 alone, 2.8 and 11.1 mM glucose
Description: as §2
(§4) For insulin secretion from rat, mouse or human islets, batches of 10 islets were washed in KRBH containing 2.8 mM glucose and 0.5% defatted BSA, and pre-incubated for 45 min in KRBH containing 2.8 mM glucose, 0.5% defatted BSA and different pharmacological agents (at indicated concentrations) or DMSO. Islets were then incubated for either 45 min or 2 h in KRBH containing various glucose concentrations or 2.8 mM glucose plus 35 mM KCl, 0.5% defatted BSA in the presence or absence of drugs (at indicated concentrations) or vehicle (DMSO). At the end of the incubation, media were collected and insulin extracted from cells or islets in acid-ethanol (1.5% HCl, 75% ethanol). Total insulin contents and media insulin concentrations were determined by radioimmunoassay using human insulin standards (Linco Research, Mo.).

[8] = tested on: human intact islets; experiment: GSIS in human intact islets; assay type: cell-based; conditions: one donor; for GSIS: 20 μM WWL70 or 20 μM AMG9810 alone
Method: Human islets were obtained from the Human Islet Isolation Core of MDRC, following appropriate ethical guidelines. The donor was a […] without any known metabolic disease. Islets were hand-picked and cultured overnight before use. Both rodent and human islets were also treated with trypsin to disperse islet cells and then cultured overnight in RPMI complete medium. These overnight cultured dispersed islets cells were then used for examining the effect of various pharmacological agents.
as §4

[9] = tested on: isolated CD1 mouse islets; experiment: GSIS in isolated CD1 mouse islets; assay type: cell-based; conditions: for GSIS: 20 μM WWL70 or 20 μM AMG9810 alone
Description: as §2, §4

[10] = tested on: dispersed rat islet cells; experiment: GSIS in dispersed rat islet cells; assay type: cell-based; conditions: 20 μM WWL70, 20 μM AMG9810 or combination
Description: as §2, with “streptomycin. […]” for “streptomycin.”
as §3

[11] = tested on: INS832/13 cell membrane extracts; experiment: 1-OG (MAG) hydrolysis by cell membrane extracts, released oleic acid by HPLC; assay type: biochemical; conditions: 50 μM 1-oleoylglycerol, 1 h at 30° C.
Method: 8 μg of […] cell membrane extracts were incubated with 50 μM of MAG (1-oleoylglycerol) and the indicated inhibitors for 1 h at 30° C. Released oleic acid was measured by HPLC after Dole's extraction and derivatization with bromoacetaminophenone.

[12] = tested on: ABHD12; conditions: cited from earlier work
[13] = tested on: CD1 mice; experiment: Oral glucose tolerance test (OGTT); assay type: in vivo, mouse; conditions: WWL70 10 mg/kg intraperitoneally 2 h prior to oral glucose 2 g/kg
Method: Normal CD1 mice were fasted for 4 h prior to the oral glucose tolerance test (OGTT). […] Control mice (6) were given only vehicle. After 2 h, all mice were given a oral gavage of glucose (2 g/kg of body weight), followed by blood collection from the tail vein at the indicated times. Blood glucose (glucometer; Accu-Check™, Roche Applied Science) and plasma insulin (ELISA) (insulin mouse ultrasensitive electroimmunoassay, ALPCO Diagnostics, Salem, N.H.) were measured.

[14] = 1 and 10 mM [U14C]-glucose, 50 μM orlistat
[15] = 20 μM AMG9810, with 20 μM WWL70

| Compound | glucose incorporation into 1-monoacylglycerol (1-MAG) [1, 14] | glucose incorporation into 2-monoacylglycerol (2-MAG) [1, 14] | glucose incorporation into diacylglycerol (DAG) [1, 14] | glucose incorporation into triglycerides (TG) [1, 14] | effect on MAG lipase (MAGL) [2] | glucose-stimulated insulin secretion (GSIS) [3] | glucose-stimulated insulin secretion [5] | GSIS [7] | GSIS [8] | GSIS [9] | GSIS [10] | KCl-stimulated insulin secretion [3] | insulin secretion stimulated by leucine+glutamine [3] | also measured |
| --- | --- | --- | --- | --- | --- | --- | --- | --- | --- | --- | --- | --- | --- | --- |
| O=C(Oc1ccc([N+](=O)[O-])cc1)N1CCC(C(O)(c2ccc3c(c2)OCO3)c2ccc3c(c2)OCO3)CC1 [JZL184] | elevated | elevated | no effect | no effect | specifically inhibits MAGL | no effect |  |  |  |  |  |  |  | release of [U14C]-free fatty acids (FFA) ([1]; 1 and 10 mM [U14C]-glucose, 50 μM orlistat, 1 μM JZL184): no effect |
| C=C(C)[C@]12C[C@@H](C)[C@@]34O[C@](Cc5ccccc5)(O[C@@H]1[C@@H]3C=C(COC(=O)Cc1ccc(O)c(OC)c1)C[C@]1(O)C(=O)C(C)=C[C@@H]41)O2 [resiniferatoxin] |  |  |  |  |  |  |  |  |  |  |  |  |  | plasma insulin levels [4]: elevates plasma insulin levels |
| ABHD6-siRNA6: annealed ABHD6-6 sense (SEQ ID NO: 9) and anti-sense (SEQ ID NO: 10) oligos, ABHD6-directed siRNA from Ambion (sense CGGAAAUUGUUUUUGGAAATT; antisense UUUCCAAAAACAAUUUCCGGT; chemistry not given here) |  |  |  |  |  |  | significantly elevated |  |  |  |  |  |  |  |
| CC(C)(C)c1ccc(/C=C/C(=O)Nc2ccc3c(c2)OCCO3)cc1 [AMG9810] |  |  |  |  |  |  |  | without significant effect on GSIS per se | without significant effect on GSIS per se | without significant effect on GSIS per se | inhibition of GSIS | Neither WWL70 nor AMG9810 had any effect | inhibited | WWL70-enhanced GSIS ([6]; 20 μM WWL70 + 20 μM AMG9810): antagonized; GSIS inhibition by AMG9810 (WWL70-augmented) [7, 15]: inhibition of GSIS; GSIS inhibition by AMG9810 (WWL70-augmented) [8, 15]: inhibition of GSIS; WWL70-enhanced GSIS ([9]; 20 μM WWL70 + 20 μM AMG9810): antagonized; WWL70-enhanced GSIS ([3]; 10 μM WWL70, AMG9810 at 10 μM, 1, 5, 10 mM glucose): completely antagonized the WWL70 stimulation; GSIS, AMG9810 alone ([3]; 1, 5, 10 mM glucose, AMG9810 concentration series): dose-dependently reduces GSIS |
| CN(Cc1cccc(-c2ccncc2)c1)C(=O)Oc1ccc(-c2ccc(C(N)=O)cc2)cc1 [WWL70] | elevation | elevation | Neither of the inhibitors had any effect | marginal effect | no effect | almost doubled the GSIS; also recorded: robust increase |  | enhancement | enhancement | enhanced GSIS | enhancement | Neither WWL70 nor AMG9810 had any effect | enhanced | decrease of FFA release (fraction) ([1]; 10 μM WWL70): about ⅔; glucose incorporation into phospholipids ([1]; 1 and 10 mM [U14C]-glucose, 50 μM orlistat, 10 μM WWL70): None of the lipase inhibitors had any significant effect; GSIS ([6]; 20 μM WWL70): enhanced GSIS; 1-OG hydrolysis activity (released oleic acid) [11]: inhibited the 1-OG hydrolysis activity; effect on ABHD12 [12]: no effect; portion of GSIS amplified by palmitate ([3]; 10 μM WWL70, glucose + palmitate): not further enhanced; WWL70 concentration reaching near maximal enhancement of GSIS ([3]; 5 mM and 10 mM glucose): ~10 µM; glycemia [13]: better controlled the glycemia; plasma insulin levels [13]: significantly elevated |
| ABHD6-siRNA5: annealed ABHD6-5 sense (SEQ ID NO: 11) and anti-sense (SEQ ID NO: 12) oligos, ABHD6-directed siRNA from Ambion (sense CAGUUUGUAGAAUGCCUUATT; antisense UAAGGCAUUCUACAAACUGAT; chemistry not given here) |  |  |  |  |  |  | significantly elevated |  |  |  |  |  |  | basal insulin secretion ([5]; 1 mM glucose): increased |
